Data on one compound can be found in patent US20240156785A1, “COMPOSITION FOR IMPROVING BLOOD CHOLESTEROL LEVEL” (SUNTORY HOLDINGS LIMITED, priority 2021, published 2024).

For experiment [1], the system named is HDL cholesterol and LDL cholesterol in the blood. Put plainly: Blood cholesterol evaluation study on human (placebo-controlled, randomized, double-blind, parallel-group). The experiment is classed as in vivo. The conditions noted are these: human adults, one capsule (20 mg L-ergothioneine) per day orally for four weeks, week 4 vs pre-testing, compared with control food group. As for the experimental part:
In order to evaluate the influence of supplements containing ergothioneine on human blood cholesterol levels, a placebo-controlled, randomized, double-blind, parallel-group study was conducted on subjects including male and female adults (46 subjects in a test food group; 46 subjects in a control food group; 92 subjects in total). In this study, one capsule containing 20 mg ergothioneine (test food) or one capsule not containing ergothioneine (control food) was fed per day for four weeks. The blood cholesterol levels of the subjects were measured for pre-testing before starting the study (before starting ingestion of the test food or control food). After ingestion of the test food or control food for four weeks, the blood cholesterol levels of the subjects were measured again (testing on week 4). The cholesterol measured includes HDL cholesterol and LDL cholesterol. […] The ratio of LDL cholesterol level to HDL cholesterol level (LDL/HDL ratio) in the blood was determined for each subject from the measurements (mg/dL) of HDL cholesterol and LDL cholesterol. […] For each group, the amount of changes in LDL/HDL ratio (Δ in LDL/HDL ratio) from the time of pre-testing was determined by subtracting the LDL/HDL ratio at the time of pre-testing from the LDL/HDL ratio at the time of testing on week 4 ((LDL/HDL ratio at the time of testing on week 4)—(LDL/HDL ratio at the time of pre-testing)). […]

Experiment [2] relates to triglyceride (neutral fat) level in plasma. The conditions noted are these: mice, oral administration, compared with mice not orally administered with ergothioneine; cited from earlier work.

`C[N+](C)(C)[C@@H](Cc1c[nH]c(=S)[nH]1)C(=O)[O-]` [L-ergothioneine]: in experiment [1], the “changes in HDL cholesterol level (Δ in HDL cholesterol) in the blood” value is recorded as “increased” and the “changes in LDL/HDL ratio (Δ in LDL/HDL ratio) in the blood” value is “reduced”. Besides, the “triglyceride (neutral fat) level in plasma” value in experiment [2] is recorded as “lower”.
